Results on five compounds are retold here after the NIST ThermoML archive (doi:10.1021/je1013476).

Numbers after ± are expanded uncertainties.

The conditions of this data set: 101.33 kPa, Liquid; for viscosity: Capillary tube (Ostwald / Ubbelohde) method; for mass density: Vibrating tube method.

On to `CCCCCCCCO` [octan-1-ol], for which the viscosity (usually the resistance of a fluid to flow) reads like this: (288.15 K) 11.07 ± 0.1 mPa·s; (293.15 K) 9.161 ± 0.085 mPa·s; (298.15 K) 7.688 ± 0.072 mPa·s; (303.15 K) 6.404 ± 0.06 mPa·s; (313.15 K) 4.62 ± 0.044 mPa·s. The mass density (usually the mass of a sample divided by its volume) (288.15 K) is 828.63 ± 0.12 kg/m3; the mass density (293.15 K) is 825.2 ± 0.12 kg/m3; the mass density (298.15 K) stood at 821.74 ± 0.12 kg/m3; the mass density (303.15 K) is 818.23 ± 0.12 kg/m3; the mass density (313.15 K) was 811.22 ± 0.12 kg/m3.
Take `CCO` [ethanol]: the viscosity worked out at 1.313 ± 0.013 mPa·s (288.15 K); 1.216 ± 0.012 mPa·s (293.15 K); 1.132 ± 0.011 mPa·s (298.15 K); 1.01 ± 0.01 mPa·s (303.15 K); 0.824 ± 0.008 mPa·s (313.15 K). For the same compound, the mass density (288.15 K) is listed as 793.65 ± 0.12 kg/m3; the mass density (293.15 K) was 789.34 ± 0.12 kg/m3; the mass density (298.15 K) was 785.07 ± 0.12 kg/m3; the mass density (303.15 K) was 780.72 ± 0.12 kg/m3; the mass density (313.15 K) was 771.97 ± 0.13 kg/m3.
Regarding `CCCO` [propan-1-ol], the viscosity by setting is: (288.15 K) 2.507 ± 0.024 mPa·s; (293.15 K) 2.202 ± 0.021 mPa·s; (298.15 K) 1.973 ± 0.019 mPa·s; (303.15 K) 1.733 ± 0.017 mPa·s; (313.15 K) 1.381 ± 0.014 mPa·s. The mass density was 807.55 ± 0.12 kg/m3 (288.15 K); 803.52 ± 0.13 kg/m3 (293.15 K); 799.45 ± 0.13 kg/m3 (298.15 K); 795.47 ± 0.13 kg/m3 (303.15 K); 787.28 ± 0.13 kg/m3 (313.15 K).
For the compound `CCOC(=O)OCC` [diethyl carbonate], the viscosity turned out to be 0.864 ± 0.009 mPa·s (288.15 K); 0.803 ± 0.008 mPa·s (293.15 K); 0.757 ± 0.008 mPa·s (298.15 K); 0.7 ± 0.007 mPa·s (303.15 K); 0.616 ± 0.006 mPa·s (313.15 K). For the same compound, the mass density turned out to be 980.39 ± 0.07 kg/m3 (288.15 K); 974.83 ± 0.07 kg/m3 (293.15 K); 969.15 ± 0.08 kg/m3 (298.15 K); 963.39 ± 0.08 kg/m3 (303.15 K); 952.1 ± 0.08 kg/m3 (313.15 K).
`CCCCCO` [pentan-1-ol]: the viscosity (288.15 K) is 4.682 ± 0.045 mPa·s; the viscosity (293.15 K) was determined as 4.025 ± 0.039 mPa·s; the viscosity (298.15 K) amounted to 3.497 ± 0.034 mPa·s; the viscosity (303.15 K) is recorded as 3.022 ± 0.029 mPa·s; the viscosity (313.15 K) is 2.312 ± 0.023 mPa·s. For the same compound, the mass density is 818.32 ± 0.13 kg/m3 (288.15 K); 814.63 ± 0.13 kg/m3 (293.15 K); 810.96 ± 0.13 kg/m3 (298.15 K); 807.26 ± 0.13 kg/m3 (303.15 K); 799.78 ± 0.14 kg/m3 (313.15 K).
